Measurements as given in BindingDB's records for patent US11130769 (Prelude Therapeutics, 2021).

biological target: Induced myeloid leukemia cell differentiation protein Mcl-1 (Homo sapiens, UniProt Q07820); experiment: Fluorescence Polarization Competition Assay
Method: The assay was carried out in black half-area 96-well NBS plate (Corning), containing 15 nM of MCL-1 (BPS Bioscience), 5 nM of FITC-Bim and 3-fold serial diluted test compounds in a total volume of 50 μL of assay buffer (20 mM HEPES, 50 mM NaCl, 0.002% Tween 20, 1 mM TCEP, and 1% DMSO). The reaction plate was incubated for 1 hour at room temperature. The change of anisotropy is measured with an Envision multimode plate reader (PerkinElmer) at emission wavelength 535 nm. Fluorescence polarization was calculated in mP unit and the percentage inhibition was calculated by % inhibition=100×(mPDMSO−mP)/(mPDMSO−mPPC), in which mPDMSO is the DMSO control, and mPpc is the positive control. IC50 values were determined from a 10-point dose response curve by fitting the percent inhibition against compound concentration using the GraphPad Prism software

Sequence of Induced myeloid leukemia cell differentiation protein Mcl-1 (Q07820 whole entry): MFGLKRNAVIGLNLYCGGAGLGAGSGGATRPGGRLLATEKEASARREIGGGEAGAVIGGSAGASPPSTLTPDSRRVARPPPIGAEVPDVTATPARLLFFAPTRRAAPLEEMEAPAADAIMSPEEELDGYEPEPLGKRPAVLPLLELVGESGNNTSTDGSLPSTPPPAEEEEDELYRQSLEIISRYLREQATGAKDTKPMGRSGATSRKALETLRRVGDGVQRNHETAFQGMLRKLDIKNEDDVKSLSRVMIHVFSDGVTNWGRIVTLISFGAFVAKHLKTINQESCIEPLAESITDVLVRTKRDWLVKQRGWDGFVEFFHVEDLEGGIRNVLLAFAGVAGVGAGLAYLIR

Ki	Compound
< 100 nM	CN(C)C(=O)O[C@@H]1/C=C/CN(C)C2(CCC2)C(=O)NS(=O)(=O)c2ccc3c(c2)N(C[C@@H]2CC[C@H]21)C[C@@]1(CCCc2cc(Cl)ccc21)CO3 [US11130769, Ex. No. 139]
< 100 nM	CO[C@H]1/C=C/CN2CCC[C@H]2C(=O)NS(=O)(=O)c2ccc3c(c2)N(C[C@@H]2CC[C@H]21)C[C@@]1(CCCc2cc(Cl)ccc21)CO3 [US11130769, Ex. No. 100]
< 300 nM	CN(C)C1CN(C(=O)O[C@H]2/C=C/COC(C)(C)C(=O)NS(=O)(=O)c3ccc4c(c3)N(C[C@@H]3CC[C@H]32)C[C@@]2(CCOc3cc(Cl)ccc32)CO4)C1
< 300 nM	CCO[C@@H]1CCN(C(=O)O[C@H]2/C=C/COC(C)(C)C(=O)NS(=O)(=O)c3ccc4c(c3)N(C[C@@H]3CC[C@H]32)C[C@@]2(CCOc3cc(Cl)ccc32)CO4)C1
< 300 nM	CN(C)[C@@H]1CCN(C(=O)O[C@H]2/C=C/COC(C)(C)C(=O)NS(=O)(=O)c3ccc4c(c3)N(C[C@@H]3CC[C@H]32)C[C@@]2(CCOc3cc(Cl)ccc32)CO4)C1
< 300 nM	CN(C)CCN(C)C(=O)O[C@H]1/C=C/COC(C)(C)C(=O)NS(=O)(=O)c2ccc3c(c2)N(C[C@@H]2CC[C@H]21)C[C@@]1(CCOc2cc(Cl)ccc21)CO3
< 100 nM	CCOC(=O)N(C)[C@@H]1/C=C/COC(C)(C)C(=O)NS(=O)(=O)c2ccc3c(c2)N(C[C@@H]2CC[C@H]21)C[C@@]1(CCCc2cc(Cl)ccc21)CO3 [US11130769, Ex. No. 252]
< 300 nM	COC1CN(C(=O)O[C@H]2/C=C/COC(C)(C)C(=O)NS(=O)(=O)c3ccc4c(c3)N(C[C@@H]3CC[C@H]32)C[C@@]2(CCOc3cc(Cl)ccc32)CO4)C1
< 300 nM	CN1C/C=C/[C@H](OC(=O)NC2CC2)[C@@H]2CC[C@H]2CN2C[C@@]3(CCCc4cc(Cl)ccc43)COc3ccc(cc32)S(=O)(=O)NC(=O)C1(C)C
< 300 nM	CN(C)C[C@H]1CCCN1C(=O)O[C@H]1/C=C/COC(C)(C)C(=O)NS(=O)(=O)c2ccc3c(c2)N(C[C@@H]2CC[C@H]21)C[C@@]1(CCCc2cc(Cl)ccc21)CO3 [US11130769, Ex. No. 169]
< 100 nM	CO[C@@H]1/C=C/CN(C)C(=O)NS(=O)(=O)c2ccc3c(c2)N(C[C@@H]2CC[C@H]21)C[C@@]1(CCCc2cc(Cl)ccc21)CO3 [US11130769, Ex. No. 108]
